Measurements: ChEMBL document CHEMBL5331124, “Degradation of Hexokinase 2 Blocks Glycolysis and Induces GSDME-Dependent Pyroptosis to Amplify Immunogenic Cell Death for Breast Cancer Therapy” (J Med Chem, 2023)
Active and inactive are the calls of the source. No cut-off for these calls is given here.

Experiments:
MDA-MB-231 [1] = experiment: Cytotoxicity against human MDA-MB-231 cells assessed as inhibition of cell growth at 1 to 100 uM incubated for 48 hrs by CCK-8 assay; assay type: functional, cell-based; conditions: dose 1-100 µM
[2] = Toxicity in BALB/c mouse implanted with mouse 4T1 cells assessed as effect on mean corpuscular volume at 50 mg/kg, ip measured after 25 days in presence of cisplatin by routine blood test; assay type: organism-based; conditions: in vivo, 600 h, time 25 day
4T1 [3] = experiment: Antitumor immunity against mouse 4T1 cells implanted in BALB/c mouse model assessed as increase in HMGB1 release in cell supernatant at 20 uM measured for 36 hrs by ELISA analysis; assay type: functional, cell-based
MDA-MB-231 [4] = experiment: Induction of pyroptosis in human MDA-MB-231 cells assessed as decrease in full length GSDME level at 20 uM incubated for 36 hrs by Western blot analysis; assay type: functional, cell-based
MDA-MB-231 [5] = experiment: Antitumor activity against human MDA-MB-231 cells xenografted in BALB/c nude mouse assessed as reduction in tumor growth at 50 mg/kg, ip measured after 28 days; assay type: functional, organism-based; conditions: time 28.0 day
MDA-MB-231 [6] = experiment: Induction of pyroptosis in human MDA-MB-231 cells assessed as increase in cleaved caspase-3 level level at 20 uM incubated for 36 hrs by Western blot analysis; assay type: functional, cell-based
[7] = biological target: T1, Hexokinase-1 (Homo sapiens) (UniProt P19367); experiment: Induction of HK1 degradation in human MDA-MB-231 cells at 20 uM measured for 36 hrs by Western blot analysis; assay type: cell-based
T1 sequence (whole entry): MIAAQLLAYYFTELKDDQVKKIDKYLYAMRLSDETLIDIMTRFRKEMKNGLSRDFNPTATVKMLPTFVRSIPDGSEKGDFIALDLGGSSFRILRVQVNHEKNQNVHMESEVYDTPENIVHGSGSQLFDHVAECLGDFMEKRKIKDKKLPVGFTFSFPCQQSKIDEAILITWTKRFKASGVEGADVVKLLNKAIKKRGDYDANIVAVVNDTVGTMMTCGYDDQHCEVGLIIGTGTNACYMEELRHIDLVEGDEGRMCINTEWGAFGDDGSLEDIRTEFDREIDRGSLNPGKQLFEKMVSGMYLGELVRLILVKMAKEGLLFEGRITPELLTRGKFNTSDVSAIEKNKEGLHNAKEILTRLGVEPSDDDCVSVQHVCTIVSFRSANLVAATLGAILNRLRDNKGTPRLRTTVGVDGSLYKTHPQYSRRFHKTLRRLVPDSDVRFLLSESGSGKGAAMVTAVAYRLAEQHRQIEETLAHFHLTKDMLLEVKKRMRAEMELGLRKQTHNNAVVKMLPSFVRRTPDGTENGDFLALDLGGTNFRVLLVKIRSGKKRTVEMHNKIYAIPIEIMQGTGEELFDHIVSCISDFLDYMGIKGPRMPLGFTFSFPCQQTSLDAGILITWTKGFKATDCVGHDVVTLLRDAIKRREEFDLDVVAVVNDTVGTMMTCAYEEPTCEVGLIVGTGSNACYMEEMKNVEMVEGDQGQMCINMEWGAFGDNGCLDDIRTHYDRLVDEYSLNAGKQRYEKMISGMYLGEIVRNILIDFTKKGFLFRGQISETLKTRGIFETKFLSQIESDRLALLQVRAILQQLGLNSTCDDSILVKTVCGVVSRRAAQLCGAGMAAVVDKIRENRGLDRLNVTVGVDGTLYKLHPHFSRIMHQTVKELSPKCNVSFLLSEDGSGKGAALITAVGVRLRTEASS

4T1 [8] = experiment: Antitumor immunity against mouse 4T1 cells implanted in BALB/c mouse model assessed as downregulation of TGF-beta expression in mouse tumor by ELISA analysis; assay type: functional, cell-based
4T1 [9] = experiment: Antitumor immunity activity against mouse 4T1 cells implanted in BALB/c mouse assessed as increase in proportion of […] positive T cells in tumor by flow cytometry analysis; assay type: functional, cell-based
[10] = Toxicity in BALB/c nude mouse xenografted with human MDA-MB-231 cells assessed as effect on mean corpuscular volume at 50 mg/kg, ip measured after 30 days by routine blood test; assay type: organism-based; conditions: in vivo, 720 h, time 30 day
4T1 [11] = experiment: Antitumor immunity against mouse 4T1 cells implanted in BALB/c mouse model assessed as increase in N-terminal GSDME expression in tumor; assay type: functional, cell-based
4T1 [12] = experiment: Induction of pyroptosis in mouse 4T1 cells assessed as reduction in full length caspase-3 level at 20 uM incubated for 36 hrs; assay type: functional, cell-based
4T1 [13] = experiment: Inhibition of glycolysis in mouse 4T1 cells assessed as reduction in oxygen consumption rate at 20 uM incubated for 1 to 4 hrs by seahorse analyzer method; assay type: functional, cell-based; conditions: time 1-4 hrs
4T1 [14] = experiment: Antitumor activity against mouse 4T1 cells implanted in BALB/c mouse assessed as reduction in tumor growth at 50 mg/kg, ip measured after 23 days in presence of cisplatin; assay type: functional, organism-based; conditions: time 23.0 day
4T1 [15] = experiment: Antitumor immunity activity against mouse 4T1 cells implanted in BALB/c mouse assessed as increase in proportion of cytotoxic CD8 positive T cells in tumor by flow cytometry analysis; assay type: functional, cell-based
[16] = biological target: T2, Hexokinase-2 (Homo sapiens) (UniProt P52789); experiment: Induction of HK2 degradation in human MDA-MB-231 cells measured for 36 hrs by confocal microscopic analysis; assay type: cell-based; conditions: dose 2.0 µM
T2 sequence (whole entry): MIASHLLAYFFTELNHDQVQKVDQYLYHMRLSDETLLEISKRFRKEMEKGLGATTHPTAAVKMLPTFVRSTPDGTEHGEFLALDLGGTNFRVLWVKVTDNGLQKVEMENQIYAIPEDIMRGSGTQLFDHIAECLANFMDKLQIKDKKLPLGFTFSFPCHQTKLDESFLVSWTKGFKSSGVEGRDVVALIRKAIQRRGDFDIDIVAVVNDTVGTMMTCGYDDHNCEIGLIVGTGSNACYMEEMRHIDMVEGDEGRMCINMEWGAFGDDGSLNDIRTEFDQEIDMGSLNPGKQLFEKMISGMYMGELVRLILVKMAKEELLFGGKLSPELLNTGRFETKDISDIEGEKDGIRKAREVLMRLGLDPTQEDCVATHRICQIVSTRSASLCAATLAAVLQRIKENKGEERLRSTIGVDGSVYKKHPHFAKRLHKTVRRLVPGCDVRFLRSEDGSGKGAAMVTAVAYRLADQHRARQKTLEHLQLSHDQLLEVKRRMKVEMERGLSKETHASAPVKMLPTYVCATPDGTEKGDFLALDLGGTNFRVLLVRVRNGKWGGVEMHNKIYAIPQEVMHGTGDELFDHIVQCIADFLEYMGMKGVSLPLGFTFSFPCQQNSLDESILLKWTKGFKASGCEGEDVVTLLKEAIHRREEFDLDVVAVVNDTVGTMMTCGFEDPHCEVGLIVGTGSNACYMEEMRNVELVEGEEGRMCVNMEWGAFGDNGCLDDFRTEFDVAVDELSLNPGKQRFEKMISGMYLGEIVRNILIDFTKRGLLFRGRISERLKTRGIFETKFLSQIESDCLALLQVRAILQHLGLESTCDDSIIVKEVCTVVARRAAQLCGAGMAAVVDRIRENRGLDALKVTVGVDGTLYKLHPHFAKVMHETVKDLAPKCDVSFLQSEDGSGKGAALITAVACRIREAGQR

Compound: O=C1CCC(N2C(=O)c3cccc(NCCCCNC(=O)c4nn(Cc5ccc(Cl)cc5Cl)c5ccccc45)c3C2=O)C(=O)N1 (stereo unspecified)
- Activity (MDA-MB-231 [1]): Active
- Activity [2]: Non-Toxic
- Activity (4T1 [3]): Active
- Activity (MDA-MB-231 [4]): Active
- Activity (MDA-MB-231 [5]): Active
- Activity (MDA-MB-231 [6]): Active
- Activity [7]: inactive
- Activity (4T1 [8]): Active
- Activity (4T1 [9]): Active
- Activity [10]: Non-Toxic
- Activity (4T1 [11]): Active
- Activity (4T1 [12]): Active
- inhibition (4T1 [13]): Active
- Activity (4T1 [14]): Active
- Activity (4T1 [15]): Active
- Activity [16]: Dose-Dependent Effect
